From patent US9340493B2, “Hydroxamic acid derivatives useful as antibacterial agents” (Pfizer Inc., priority 2008, dated 2016)
≈ marks a conversion by molar mass, not a printed value.

Legend:
[1] = target: T1, Pseudomonas aeruginosa LpxC enzyme (Pseudomonas aeruginosa, UniProt P47205); assay: IC50 assay, LpxC enzyme from P. aeruginosa; assay type: biochemical; conditions: 0.5 nM enzyme, 25° C., pH 8.0, 20 min; ** = average of 2-8 assays
T1 construct: made in house; host or cells: E. coli
T1 sequence (P47205 1-303): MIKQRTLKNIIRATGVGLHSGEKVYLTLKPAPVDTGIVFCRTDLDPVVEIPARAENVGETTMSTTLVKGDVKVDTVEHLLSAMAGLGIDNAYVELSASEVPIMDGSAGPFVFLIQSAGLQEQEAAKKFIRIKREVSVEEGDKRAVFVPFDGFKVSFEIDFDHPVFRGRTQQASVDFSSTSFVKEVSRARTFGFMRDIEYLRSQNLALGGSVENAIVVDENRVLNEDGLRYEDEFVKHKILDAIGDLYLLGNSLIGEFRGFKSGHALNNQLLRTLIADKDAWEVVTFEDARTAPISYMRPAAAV
Experimental: IC50 assay, LpxC enzyme from P. aeruginosa: IC50 determination in the LpxC enzyme assay was carried out in a similar manner to that described by S. A. Hyland et al., J. Bacteriology 1997, 179, 2029-2037. [See also T. Kline et al., J. Medicinal Chemistry 2002, 45, 3112-3129.] Briefly, Pseudomonas aeruginosa LpxC enzyme (0.5 nM) purified from E. coli-overexpressing bacteria was incubated at 25° C. in a final volume of 25 ul containing 0.5 uM UDP-3-O—(R-3-hydroxydecanoyl)-N—[^3H-acetyl]glucosamine (B. D. Maxwell and J. C. Bronstein, J. Labeled Compounds and Radiopharmaceuticals 2005, 48, 1049-1054), 1 mg/ml BSA, and 50 mM sodium phosphate buffer, pH 8.0 in the presence and absence of inhibitor compound. At the end of 20 min, 90 ul of a pre-mixed 3% suspension of activated charcoal in 100 mM sodium acetate, pH 7.5, was added to stop the enzyme reaction. The contents of the well were transferred to a filter plate and filtered, and an aliquot of the filtrate was quantitated by liquid scintillation spectrometry. A no-enzyme control was subtracted in order to eliminate background counts.

P. aeruginosa PAO280 = assay: MIC determination, P. aeruginosa PAO280; assay type: cell-based; conditions: Pseudomonas aeruginosa, PAO280, read-out: MIC (ug/mL) P. aeruginosa PAO280
Experimental: (§1) MIC determinations: The in vitro antibacterial activity of compounds described in the Examples was evaluated by minimum inhibitory concentration (MIC) testing according to Clinical and Laboratory Standards Institute (CLSI, formerly NCCLS) guidelines. See: Clinical and Laboratory Standards Institute. Methods for Dilution Antimicrobial Susceptibility Tests for Bacteria that Grow Aerobically; Approved Standard-Seventh Edition. CLSI document M7-A7 [ISBN 1-56238-587-9]. Clinical and Laboratory Standards Institute, 940 West Valley Road, Suite 1400, Wayne, Pa. 19087-1898 USA, 2006; also Clinical and Laboratory Standards Institute. Performance Standards for Antimicrobial Susceptibility Testing; Eighteenth Informational Supplement. CLSI document M100-S18 [ISBN1-56238-653-0]. Clinical and Laboratory Standards Institute.
(§2) The following bacterial strains were used:
Pseudomonas aeruginosa PA0280: lacks efflux pumps MexAB-oprM, MexXY and MexZ

P. aeruginosa UI-18 = assay: MIC determination, P. aeruginosa UI-18; assay type: cell-based; conditions: Pseudomonas aeruginosa, UI18; wild-type; * = arithmetic mean of 2-6 MIC determinations; read-out: MIC (ug/mL) P. aeruginosa UI-18
Experimental: as §1, §2
P. aeruginosa UI-18: Wild-type;

[2] = test system: Acinetobacter baumanii/haemolyticus; assay: MIC determination, A. baumanii/haemolyticus; assay type: cell-based; conditions: Acinetobacter baumannii; multidrug-resistant clinical isolate; * = arithmetic mean of 2-6 MIC determinations; read-out: MIC (ug/mL) A. baumanii/haemolyticus
Experimental: as §1, §2
Acinetobacter baumanii/haemolyticus: Multidrug-resistant clinical isolate;

Enterobacter aerogenes = assay: MIC determination, E. aerogenes; assay type: cell-based; conditions: Klebsiella aerogenes; quinolone-resistant, ESBL-expressing clinical isolate; * = arithmetic mean of 2-6 MIC determinations; read-out: MIC (ug/mL) E. aerogenes
Experimental: as §1, §2
Enterobacter aerogenes: Quinolone-resistant isolate, expresses extended-spectrum beta-lactamases (ESBL), clinical isolate;

Escherichia coli EC-1 = assay: MIC determination, E. coli EC-1; assay type: cell-based; conditions: EC1, EC-1: VOGEL, * = arithmetic mean of 2-6 MIC determinations, read-out: MIC (ug/mL) E. coli EC-1
Experimental: as §1, §2
Escherichia coli EC-1: VOGEL;

Klebsiella pneumoniae = assay: MIC determination, K. pneumoniae; assay type: cell-based; conditions: ciprofloxacin-resistant, ESBL-expressing clinical isolate, * = arithmetic mean of 2-6 MIC determinations, read-out: MIC (ug/mL) K. pneumoniae
Experimental: as §1, §2
Klebsiella pneumoniae: Ciprofloxacin-resistant isolate, expresses extended-spectrum beta-lactamases (ESBL), clinical isolate;

[3] = test system: Staphylococcus aureus ATCC 29213; assay: MIC determination, S. aureus ATCC 29213; assay type: cell-based; conditions: ATCC29213, CLSI quality control reference strain, * = arithmetic mean of 2-6 MIC determinations, read-out: MIC (ug/mL) S. aureus ATCC 29213
Experimental: as §1, §2
Staphylococcus aureus ATCC 29213: CLSI quality control reference strain; and […]

SMILES | IC50 [1] [µM] | MIC (P. aeruginosa PAO280) [µg/mL] | MIC (P. aeruginosa UI-18) [µg/mL] | MIC [2] [µg/mL] | MIC (Enterobacter aerogenes) [µg/mL] | MIC (Escherichia coli EC-1) [µg/mL] | MIC (Klebsiella pneumoniae) [µg/mL] | MIC [3] [µg/mL]
CCCc1ccc(-c2ccc(CO[C@](C)(C(=O)NO)[C@@H](O)c3cc(C)on3)cc2)cc1 [Example 30, (2S,3S)-N,3-dihydroxy-2-methyl-3-(5-methylisoxazol-3-yl)-2-[(4′-propylbiphenyl-4-yl)methoxy]propanamide] | 0.000762 | 1 (≈ 2.36 µM) | 4 (≈ 9.42 µM) | 2 (≈ 4.71 µM) | 16 (≈ 37.7 µM) | 2 (≈ 4.71 µM) | 4 (≈ 9.42 µM) | 32 (≈ 75.4 µM)
C[C@@](OCc1ccc(-c2ccccc2)cc1)(C(=O)NO)[C@@H](O)c1ccon1 [Example 31, (2S,3S)-2-(biphenyl-4-ylmethoxy)-N,3-dihydroxy-3-isoxazol-3-yl-2-methylpropanamide] | 0.000406 | 0.06 (≈ 0.163 µM) | 6 (≈ 16.3 µM) | 32 (≈ 86.9 µM) | > 64 | 16 (≈ 43.4 µM) | 48 (≈ 130 µM) | > 64
Cc1ccc(-c2ccc(CO[C@](C)(C(=O)NO)[C@@H](O)c3cc(C)on3)cc2)nc1 [Example 32, (2S,3S)-N,3-dihydroxy-2-methyl-3-(5-methylisoxazol-3-yl)-2-{[4-(5-methylpyridin-2-yl)benzyl]oxy}propanamide] | 0.000286 | 0.06 (≈ 0.151 µM) | 8 (≈ 20.1 µM) | > 64 | > 64 | 32 (≈ 80.5 µM) | 64 (≈ 161 µM) | > 64
C[C@@](OCc1ccc(-c2ccccc2)cc1)(C(=O)NO)[C@@H](O)c1ncco1 [Example 33, (2S,3R)-2-(biphenyl-4-ylmethoxy)-N,3-dihydroxy-2-methyl-3-(1,3-oxazol-2-yl)propanamide] | 0.00323 | 0.25 (≈ 0.679 µM) | 8 (≈ 21.7 µM) | > 64 | > 64 | 64 (≈ 174 µM) | > 64 | > 64
C[C@@](OCc1ccc(-c2ccccc2)cc1)(C(=O)NO)[C@@H](O)c1cc(CO)on1 [Example 34, (2S,3S)-2-(biphenyl-4-ylmethoxy)-N,3-dihydroxy-3-[5-(hydroxymethyl)isoxazol-3-yl]-2-methylpropanamide] | 0.000579 | 0.023 (≈ 0.0577 µM) | 1.25 (≈ 3.14 µM) | 64 (≈ 161 µM) | > 64 | 28 (≈ 70.3 µM) | 64 (≈ 161 µM) | > 64
C[C@@](OCc1ccc(-c2ccc(F)cc2)cc1)(C(=O)NO)[C@@H](O)c1cc(CO)on1 [Example 35, (2S,3S)-2-[(4′-fluorobiphenyl-4-yl)methoxy]-N,3-dihydroxy-3-[5-(hydroxymethyl)isoxazol-3-yl]-2-methylpropanamide] | 0.000695 | 0.03 (≈ 0.072 µM) | 1 (≈ 2.4 µM) | 64 (≈ 154 µM) | > 64 | 23 (≈ 55.2 µM) | 53 (≈ 127 µM) | > 64
CCc1ccc(-c2ccc(CO[C@](C)(C(=O)NO)[C@@H](O)c3cc(CO)on3)cc2)cc1 [Example 36, (2S,3S)-2-[(4′-ethylbiphenyl-4-yl)methoxy]-N,3-dihydroxy-4-[5-(hydroxymethyl)isoxazol-3-yl]-2-methylpropanamide] | 0.000244 | 0.03 (≈ 0.0703 µM) | 1 (≈ 2.34 µM) | 32 (≈ 75 µM) | 64 (≈ 150 µM) | 4 (≈ 9.38 µM) | 16 (≈ 37.5 µM) | 64 (≈ 150 µM)
Cc1ccc(-c2ccc(CO[C@](C)(C(=O)NO)[C@@H](O)c3cc(CO)on3)cc2)cc1 [Example 37, (2S,3S)-N,3-dihydroxy-3-[5-(hydroxymethyl)isoxazol-3-yl]-2-methyl-2-[(4′-methylbiphenyl-4-yl)methoxy]propanamide] | 0.000476 | 0.015 (≈ 0.0364 µM) | 0.75 (≈ 1.82 µM) | 64 (≈ 155 µM) | 64 (≈ 155 µM) | 8 (≈ 19.4 µM) | 16 (≈ 38.8 µM) | > 64
Cc1cc([C@H](O)[C@](C)(OCc2ccc(-c3ccc(F)cc3)cc2)C(=O)NO)no1 [Example 38, (2S,3S)-2-[(4′-fluorobiphenyl-4-yl)methoxy]-N,3-dihydroxy-2-methyl-3-(5-methylisoxazol-3-yl)propanamide] | 0.000132 | 0.015 (≈ 0.0375 µM) | 1 (≈ 2.5 µM) | 4 (≈ 9.99 µM) | 64 (≈ 160 µM) | 2 (≈ 4.99 µM) | 8 (≈ 20 µM) | > 64
Cc1ccc(-c2ccc(CO[C@](C)(C(=O)NO)[C@@H](O)c3cc(C)on3)cc2)cc1 [Example 39, (2S,3S)-N,3-dihydroxy-2-methyl-2-[(4′-methylbiphenyl-4-yl)methoxy]-3-(5-methylisoxazol-3-yl)propanamide] | 0.000589 | 0.03 (≈ 0.0757 µM) | 1 (≈ 2.52 µM) | 4 (≈ 10.1 µM) | 32 (≈ 80.7 µM) | 2 (≈ 5.04 µM) | 4 (≈ 10.1 µM) | > 64
Cc1ccc(-c2ccc(CO[C@](C)(C(=O)NO)[C@@H](O)c3cc(CO)on3)cc2)nc1 [Example 40, (2S,3S)-N,3-dihydroxy-3-[5-(hydroxymethyl)isoxazol-3-yl]-2-methyl-2-{[4-(5-methylpyridin-2-yl)benzyl]oxy}propanamide] | 0.00081 | 0.125 (≈ 0.302 µM) | 16 (≈ 38.7 µM) | > 64 | > 64 | > 64 | > 64 | > 64
C[C@@](OCc1ccc(-c2ccc(C(F)(F)F)cn2)cc1)(C(=O)NO)[C@@H](O)c1cc(CO)on1 [Example 41, (2S,3S)-N,3-dihydroxy-3-[5-(hydroxymethyl)isoxazol-3-yl]-2-methyl-2-({4-[5-(trifluoromethyl)pyridin-2-yl]benzyl}oxy)propanamide] | 0.00116 | 0.25 (≈ 0.535 µM) | 32 (≈ 68.5 µM) | > 64 | > 64 | > 64 | > 64 | > 64
C[C@@](OCc1ccc(-c2ccc(C(F)(F)F)cc2)cc1)(C(=O)NO)[C@@H](O)c1cc(CO)on1 [Example 42, (2S,3S)-N,3-dihydroxy-3-[5-(hydroxymethyl)isoxazol-3-yl]-2-methyl-2-{[4′-(trifluoromethyl)biphenyl-4-yl]methoxy}propanamide] | 0.000372 | < 0.06 | 2 (≈ 4.29 µM) | 32 (≈ 68.6 µM) | > 32 | 16 (≈ 34.3 µM) | > 32 | > 32
C[C@@](OCc1ccc(-c2ccccc2)cc1)(C(=O)NO)[C@@H](O)c1cc(S(C)(=O)=O)on1 [Example 43, (2S,3S)-2-(biphenyl-4-ylmethoxy)-N,3-dihydroxy-2-methyl-3-[5-(methylsulfonyl)isoxazol-3-yl]propanamide] | 0.000686 | 0.03 (≈ 0.0672 µM) | 2 (≈ 4.48 µM) | 64 (≈ 143 µM) | 64 (≈ 143 µM) | 4 (≈ 8.96 µM) | 16 (≈ 35.8 µM) | 64 (≈ 143 µM)
